What was measured:
Assay in all cases: Test D controlled growth environment herbicide test, pre- and postemergence
Type in all cases: in vivo
[1] = test system: chamomile (scentless chamomile, Matricaria inodora)
Method in brief: (§1)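 Species sown in silt loam and sprayed preemergence, or grown in peat-based medium to 2–18 cm (1- to 4-leaf stage) and sprayed postemergence, with compounds in non-phytotoxic solvent plus surfactant. Visual injury scored versus controls after 14–21 d in a controlled environment, 0 (no effect) to 100 (complete control).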

[2] = test system: mustard, wild (wild mustard, Sinapis arvensis)
Method in brief: as §1

[3] = test system: bromegrass, downy (downy bromegrass, Bromus tectorum)
Method in brief: as §1

[4] = test system: lambsquarters (Chenopodium album)
Method in brief: as §1

[5] = test system: barley, winter (winter barley, Hordeum vulgare)
Method in brief: as §1

[6] = test system: windgrass (Apera spica-venti)
Method in brief: as §1

[7] = test system: chickweed (common chickweed, Stellaria media)
Method in brief: as §1

[8] = test system: wheat, winter (winter wheat, Triticum aestivum)
Method in brief: as §1

[9] = test system: blackgrass (Alopecurus myosuroides)
Method in brief: as §1

[10] = test system: field poppy (Papaver rhoeas)
Method in brief: as §1

[11] = test system: wheat, spring (spring wheat, Triticum aestivum)
Method in brief: as §1

[12] = test system: pigweed (Amaranthus retroflexus)
Method in brief: as §1

[13] = test system: foxtail, green (green foxtail, Setaria viridis)
Method in brief: as §1

[14] = test system: oat, wild (wild oat, Avena fatua)
Method in brief: as §1

[15] = Postemergence, 31 g ai/ha, scale 0 to 100 (0 no effect, 100 complete control)
[16] = Postemergence, 125 g ai/ha, visual rating on scale 0 (no effect) to 100 (complete control), 14 to 21 d
[17] = Postemergence, 250 g ai/ha, scale 0 to 100 (0 no effect, 100 complete control)
[18] = Preemergence, 62 g ai/ha, scale 0 to 100 (0 no effect, 100 complete control)
[19] = Preemergence, 125 g ai/ha, scale 0 to 100 (0 no effect, 100 complete control)
[20] = Preemergence, 250 g ai/ha, scale 0 to 100, 0 no effect, 100 complete control
[21] = postemergence, 62 g ai/ha, scale 0 to 100, 0 no effect, 100 complete control

## Cc1ccc2sc(C)c(-c3c(OC(=O)OC(C)C)c(C)nn(C)c3=O)c2c1 [Compound 66]
[1]; [15]
  Chamomile plant response rating: 85
[1]; [16]
  Plant response rating, Chamomile: 100
[1]; [17]
  Plant response rating, Chamomile: 100
[1]; Preemergence, 31 g ai/ha
  Plant response rating (scale of 0 to 100), Chamomile: 90
[1]; [18]
  Plant response rating, Chamomile: 100
[1]; [19]
  Plant response rating, Chamomile: 100
[1]; [20]
  Plant response rating, Chamomile: 100
[1]; [21]
  Plant response rating, Chamomile: 90
[2]; [15]
  Mustard, Wild plant response rating: 10
[2]; [16]
  Plant response rating, Mustard, Wild: 55
[2]; [17]
  Plant response rating, Mustard, Wild: 70
[2]; Preemergence, 31 g ai/ha
  Plant response rating (scale of 0 to 100), Mustard, Wild: 0
[2]; [18]
  Plant response rating, Mustard, Wild: 0
[2]; [19]
  Plant response rating, Mustard, Wild: 0
[2]; [20]
  Plant response rating, Mustard, Wild: 0
[2]; [21]
  Plant response rating, Mustard, Wild: 40
[3]; [15]
  Bromegrass, Downy plant response rating: 50
[3]; [16]
  Plant response rating, Bromegrass, Downy: 65
[3]; [17]
  Plant response rating, Bromegrass, Downy: 70
[3]; Preemergence, 31 g ai/ha
  Plant response rating (scale of 0 to 100), Bromegrass, Downy: 15
[3]; [18]
  Plant response rating, Bromegrass, Downy: 60
[3]; [19]
  Plant response rating, Bromegrass, Downy: 80
[3]; [20]
  Plant response rating, Bromegrass, Downy: 85
[3]; [21]
  Plant response rating, Bromegrass, Downy: 60
[4]; [15]
  Lambsquarters plant response rating: 95
[4]; [16]
  Plant response rating, Lambsquarters: 100
[4]; [17]
  Plant response rating, Lambsquarters: 100
[4]; Preemergence, 31 g ai/ha
  Plant response rating (scale of 0 to 100), Lambsquarters: 55
[4]; [18]
  Plant response rating, Lambsquarters: 100
[4]; [19]
  Plant response rating, Lambsquarters: 100
[4]; [20]
  Plant response rating, Lambsquarters: 100
[4]; [21]
  Plant response rating, Lambsquarters: 95
[5]; [15]
  Barley, Winter plant response rating: 0
[5]; [16]
  Plant response rating, Barley, Winter: 0
[5]; [17]
  Plant response rating, Barley, Winter: 5
[5]; Preemergence, 31 g ai/ha
  Plant response rating (scale of 0 to 100), Barley, Winter: 0
[5]; [18]
  Plant response rating, Barley, Winter: 0
[5]; [19]
  Plant response rating, Barley, Winter: 0
[5]; [20]
  Plant response rating, Barley, Winter: 10
[5]; [21]
  Plant response rating, Barley, Winter: 0
[6]; [15]
  Windgrass plant response rating: 75
[6]; [16]
  Plant response rating, Windgrass: 85
[6]; [17]
  Plant response rating, Windgrass: 100
[6]; Preemergence, 31 g ai/ha
  Plant response rating (scale of 0 to 100), Windgrass: 70
[6]; [18]
  Plant response rating, Windgrass: 75
[6]; [19]
  Plant response rating, Windgrass: 85
[6]; [20]
  Plant response rating, Windgrass: 85
[6]; [21]
  Plant response rating, Windgrass: 80
[7]; [15]
  Chickweed plant response rating: 75
[7]; [16]
  Plant response rating, Chickweed: 100
[7]; [17]
  Plant response rating, Chickweed: 100
[7]; Preemergence, 31 g ai/ha
  Plant response rating (scale of 0 to 100), Chickweed: 90
[7]; [18]
  Plant response rating, Chickweed: 100
[7]; [19]
  Plant response rating, Chickweed: 100
[7]; [20]
  Plant response rating, Chickweed: 100
[7]; [21]
  Plant response rating, Chickweed: 85
[8]; [15]
  Wheat, Winter plant response rating: 0
[8]; [16]
  Plant response rating, Wheat, Winter: 0
[8]; [17]
  Plant response rating, Wheat, Winter: 0
[8]; Preemergence, 31 g ai/ha
  Plant response rating (scale of 0 to 100), Wheat, Winter: 0
[8]; [18]
  Plant response rating, Wheat, Winter: 0
[8]; [19]
  Plant response rating, Wheat, Winter: 0
[8]; [20]
  Plant response rating, Wheat, Winter: 0
[8]; [21]
  Plant response rating, Wheat, Winter: 0
[9]; [15]
  Blackgrass plant response rating: 65
[9]; [16]
  Plant response rating, Blackgrass: 75
[9]; [17]
  Plant response rating, Blackgrass: 75
[9]; Preemergence, 31 g ai/ha
  Plant response rating (scale of 0 to 100), Blackgrass: 25
[9]; [18]
  Plant response rating, Blackgrass: 70
[9]; [19]
  Plant response rating, Blackgrass: 75
[9]; [20]
  Plant response rating, Blackgrass: 80
[9]; [21]
  Plant response rating, Blackgrass: 70
[10]; [15]
  Field Poppy plant response rating: 70
[10]; [16]
  Plant response rating, Field Poppy: 95
[10]; [17]
  Plant response rating, Field Poppy: 95
[10]; Preemergence, 31 g ai/ha
  Plant response rating (scale of 0 to 100), Field Poppy: 100
[10]; [18]
  Plant response rating, Field Poppy: 100
[10]; [19]
  Plant response rating, Field Poppy: 100
[10]; [20]
  Plant response rating, Field Poppy: 100
[10]; [21]
  Plant response rating, Field Poppy: 85
[11]; [15]
  Wheat, Spring plant response rating: 0
[11]; [16]
  Plant response rating, Wheat, Spring: 0
[11]; [17]
  Plant response rating, Wheat, Spring: 5
[11]; Preemergence, 31 g ai/ha
  Plant response rating (scale of 0 to 100), Wheat, Spring: 0
[11]; [18]
  Plant response rating, Wheat, Spring: 0
[11]; [19]
  Plant response rating, Wheat, Spring: 5
[11]; [20]
  Plant response rating, Wheat, Spring: 20
[11]; [21]
  Plant response rating, Wheat, Spring: 0
[12]; [15]
  Pigweed plant response rating: 95
[12]; [16]
  Plant response rating, Pigweed: 100
[12]; [17]
  Plant response rating, Pigweed: 100
[12]; Preemergence, 31 g ai/ha
  Plant response rating (scale of 0 to 100), Pigweed: 30
[12]; [18]
  Plant response rating, Pigweed: 100
[12]; [19]
  Plant response rating, Pigweed: 100
[12]; [20]
  Plant response rating, Pigweed: 100
[12]; [21]
  Plant response rating, Pigweed: 100
[13]; [15]
  Foxtail, Green plant response rating: 75
[13]; [16]
  Plant response rating, Foxtail, Green: 90
[13]; [17]
  Plant response rating, Foxtail, Green: 98
[13]; Preemergence, 31 g ai/ha
  Plant response rating (scale of 0 to 100), Foxtail, Green: 15
[13]; [18]
  Plant response rating, Foxtail, Green: 35
[13]; [19]
  Plant response rating, Foxtail, Green: 65
[13]; [20]
  Plant response rating, Foxtail, Green: 70
[13]; [21]
  Plant response rating, Foxtail, Green: 80
[14]; [15]
  Oat, Wild plant response rating: 85
[14]; [16]
  Plant response rating, Oat, Wild: 100
[14]; [17]
  Plant response rating, Oat, Wild: 100
[14]; Preemergence, 31 g ai/ha
  Plant response rating (scale of 0 to 100), Oat, Wild: 75
[14]; [18]
  Plant response rating, Oat, Wild: 85
[14]; [19]
  Plant response rating, Oat, Wild: 85
[14]; [20]
  Plant response rating, Oat, Wild: 90
[14]; [21]
  Plant response rating, Oat, Wild: 95

Reference: patent publication US10597388B2, “Pyridazinone herbicides” (FMC CORPORATION, priority 2014, dated 2020)
